Experimental data taken from patent US20190085024A1, “Alpha-Ketoamide Inhibitors Of Cysteine Proteases” (Phelix Therapeutics, priority 2017, published 2019).

Assays:
Calpain = Calpain enzyme assay; format: biochemical; conditions: Ki by Morrison equation; pH 7.5, 5 mM CaCl2
Cathepsin L = Cathepsin L (Homo sapiens, UniProt P07711); test: Cathepsin L enzyme assay; format: biochemical; conditions: Ki by Morrison equation; pH 5.5, substrate Z-Phe-Arg-Amc; read-out: Cat L
Text: Two wells contained DMSO only for controls.
Velocity was converted to μM/sec.

Cathepsin L, sequence (P07711 114-333, species assumed): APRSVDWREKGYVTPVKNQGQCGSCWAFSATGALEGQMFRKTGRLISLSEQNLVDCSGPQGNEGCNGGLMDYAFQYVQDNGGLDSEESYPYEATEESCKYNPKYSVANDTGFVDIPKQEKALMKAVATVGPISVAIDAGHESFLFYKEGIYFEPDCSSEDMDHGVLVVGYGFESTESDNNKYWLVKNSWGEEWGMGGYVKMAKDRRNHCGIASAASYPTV

SMILES	Ki (Calpain) [µM]	Ki (Cathepsin L) [µM]
CCC(C)C(NC(=O)C(CC(C)C)NC(=O)CN1CCOCC1)C(=O)C(=O)NCC(=O)N(C)C(Cc1ccccc1)C(N)=O (stereo not drawn) [PHELIX352, N-(2-((1-amino-1-oxo-3-phenylpropan-2-yl)(methyl)amino)-2-oxoethyl)-4-methyl-3-(4-methyl-2-(2-morpholinoacetamido)pentanamido)-2-oxohexanamide]	0.00193	0.00048
CCC(C)C(NC(=O)C(=O)C(C)NC(=O)C(Cc1ccccc1)NC(=O)Cc1ccccc1)C(=O)NC1(C(=O)O)CCCC1 (stereo not drawn) [PHELIX217, 1-(3-methyl-2-(2-oxo-3-(3-phenyl-2-(2-phenylacetamido)propanamido)butanamido)pentanamido)cyclopentane-1-carboxylic acid]	> 100	1080
CCC(C)C(NC(=O)C(CC(C)C)NC(=O)OCc1ccccc1)C(=O)C(=O)NCC(=O)NC(Cc1ccc(F)cc1)C(N)=O (stereo not drawn) [PHELIX349, benzyl (1-((1-((2-((1-amino-3-(4-fluorophenyl)-1-oxopropan-2-yl)amino)-2-oxoethyl)amino)-4-methyl-1,2-dioxohexan-3-yl)amino)-4-methyl-1-oxopentan-2-yl)carbamate]	0.00227	0.00211
CCC(C)C(NC(=O)C(CC(C)C)NC(=O)OCc1ccccc1)C(=O)C(=O)NC(Cc1cnc[nH]1)C(=O)NC(Cc1ccc2ccccc2c1)C(N)=O (stereo not drawn) [PHELIX328, benzyl (1-((1-((1-((1-amino-3-(naphthalen-2-yl)-1-oxopropan-2-yl)amino)-3-(1H-imidazol-5-yl)-1-oxopropan-2-yl)amino)-4-methyl-1,2-dioxohexan-3-yl)amino)-4-methyl-1-oxopentan-2-yl)carbamate]	0.0351	0.00252
CCC(C)C(NC(=O)C(CC(C)C)NC(=O)OCc1ccccc1)C(=O)C(=O)NC(CCCNC(=N)N)C(=O)NC(Cc1ccc2ccccc2c1)C(N)=O (stereo not drawn) [PHELIX329, benzyl (1-((1-((1-((1-amino-3-(naphthalen-2-yl)-1-oxopropan-2-yl)amino)-5-guanidino-1-oxopentan-2-yl)amino)-4-methyl-1,2-dioxohexan-3-yl)amino)-4-methyl-1-oxopentan-2-yl)carbamate]	0.111	0.00267
CCC(C)C(NC(=O)C(CC(C)C)NC(=O)OCc1ccccc1)C(=O)C(=O)N1CC(C(=O)NCc2ccc3ccccc3c2)C1 (stereo not drawn) [PHELIX363, benzyl (4-methyl-1-((4-methyl-1-(3-((naphthalen-2-ylmethyl)carbamoyl)azetidin-1-yl)-1,2-dioxohexan-3-yl)amino)-1-oxopentan-2-yl)carbamate]	0.178	0.0194
CCC(C)C(NC(=O)C(CC(C)C)NC(=O)OCc1ccccc1)C(=O)C(=O)NC(Cc1ccncc1)C(N)=O (stereo not drawn) [PHELIX342, benzyl (1-((1-((1-amino-1-oxo-3-(pyridin-4-yl)propan-2-yl)amino)-4-methyl-1,2-dioxohexan-3-yl)amino)-4-methyl-1-oxopentan-2-yl)carbamate]	0.0202	0.0313
CCC(C)C(NC(=O)C(CC(C)C)NC(=O)OCc1ccccc1)C(=O)C(=O)N1CC(C(=O)NCc2cncnc2)C1 (stereo not drawn) [PHELIX362, benzyl (4-methyl-1-((4-methyl-1,2-dioxo-1-(3-((pyrimidin-5-ylmethyl)carbamoyl)azetidin-1-yl)hexan-3-yl)amino)-1-oxopentan-2-yl)carbamate]	0.63	0.157
CCC(C)C(NC(=O)C(CC(C)C)NC(=O)OCc1ccccc1)C(=O)C(=O)NCC(=O)NC(Cc1cccnc1)C(N)=O (stereo not drawn) [PHELIX356, benzyl (1-((1-((2-((1-amino-1-oxo-3-(pyridin-3-yl)propan-2-yl)amino)-2-oxoethyl)amino)-4-methyl-1,2-dioxohexan-3-yl)amino)-4-methyl-1-oxopentan-2-yl)carbamate]	0.00917	0.0112
CCC(C)C(NC(=O)C(CC(C)C)NC(=O)C(Cc1ccccc1)NC(=O)Cc1ccncc1)C(=O)C(=O)NC(CCCNC(=N)N)C(N)=O (stereo not drawn) [PHELIX346, N-(1-amino-5-guanidino-1-oxopentan-2-yl)-4-methyl-3-(4-methyl-2-(3-phenyl-2-(2-(pyridin-4-yl)acetamido)propanamido)pentanamido)-2-oxohexanamide]	0.00171	0.00328
CCC(C)C(NC(=O)C(CC(C)C)NC(=O)OCc1ccccc1)C(=O)C(=O)NC(C)(C)C(=O)NC(Cc1ccc2ccccc2c1)C(N)=O (stereo not drawn) [PHELIX296, benzyl (1-((1-((1-((1-amino-3-(naphthalen-2-yl)-1-oxopropan-2-yl)amino)-2-methyl-1-oxopropan-2-yl)amino)-4-methyl-1,2-dioxohexan-3-yl)amino)-4-methyl-1-oxopentan-2-yl)carbamate]	1.55	1.72
CCC(C)C(C(=O)C(=O)NCC(=O)NC(Cc1ccc2ccccc2c1)C(N)=O)N(C)C(=O)C(CC(C)C)NC(=O)OCc1ccccc1 (stereo not drawn) [PHELIX292, benzyl (1-((1-((2-((1-amino-3-(naphthalen-2-yl)-1-oxopropan-2-yl)amino)-2-oxoethyl)amino)-4-methyl-1,2-dioxohexan-3-yl)(methyl)amino)-4-methyl-1-oxopentan-2-yl)carbamate]	4.3	0.0371
CCC(C)C(NC(=O)C(CC(C)C)NC(=O)C(Cc1ccccc1)NC(=O)OCc1ccccc1)C(=O)C(=O)NC(CCCNC(=N)N)C(N)=O (stereo not drawn) [PHELIX294, benzyl (1-amino-10-(sec-butyl)-6-carbamoyl-1-imino-13-isobutyl-8,9,12,15-tetraoxo-17-phenyl-2,7,11,14-tetraazaheptadecan-16-yl)carbamate]	0.00049	0.00253
CC(NC(=O)C(Cc1ccccc1)NC(=O)Cc1ccccc1)C(=O)C(=O)NC(Cc1ccccc1)C(=O)NC(Cc1ccc2ccccc2c1)C(N)=O (stereo not drawn) [PHELIX216, N-(1-((1-amino-3-(naphthalen-2-yl)-1-oxopropan-2-yl)amino)-1-oxo-3-phenylpropan-2-yl)-2-oxo-3-(3-phenyl-2-(2-phenylacetamido)propanamido)butanamide]	> 100	> 1000
CCC(C)C(NC(=O)C(CC(C)C)NC(=O)OCc1ccccc1)C(=O)C(=O)NC(CCC(N)=O)C(=O)NC(Cc1ccc2ccccc2c1)C(N)=O (stereo not drawn) [PHELIX317, benzyl (1-((1-((5-amino-1-((1-amino-3-(naphthalen-2-yl)-1-oxopropan-2-yl)amino)-1,5-dioxopentan-2-yl)amino)-4-methyl-1,2-dioxohexan-3-yl)amino)-4-methyl-1-oxopentan-2-yl)carbamate]	0.0198	0.00137
CC[C@H](C)C(NC(=O)[C@H](CC(C)C)NC(=O)OCc1ccccc1)C(=O)C(=O)N1CC(C(=O)O)C1 (stereo partly drawn) [PHELIX367, 1-(3-(2-(((benzyloxy)carbonyl)amino)-4-methylpentanamido)-4-methyl-2-oxohexanoyl)azetidine-3-carboxylic acid]	> 1	0.906

Other lines, results leading:

Ki (Calpain) [µM]	Ki (Cathepsin L) [µM]	SMILES
0.00483	0.0123	CCC(C)C(NC(=O)C(CC1CC1)NC(=O)OCc1ccccc1)C(=O)C(=O)NCC(=O)NC(Cc1ccc2ccccc2c1)C(N)=O (stereo not drawn) [PHELIX299, benzyl (1-((1-((2-((1-amino-3-(naphthalen-2-yl)-1-oxopropan-2-yl)amino)-2-oxoethyl)amino)-4-methyl-1,2-dioxohexan-3-yl)amino)-3-cyclopropyl-1-oxopropan-2-yl)carbamate]
0.00926	0.00167	CCC(C)C(NC(=O)C(CC(C)(C)C)NC(=O)Cc1ccccc1)C(=O)C(=O)NCC(=O)NC(Cc1ccc2ccccc2c1)C(N)=O (stereo not drawn) [PHELIX331, N-(2-((1-amino-3-(naphthalen-2-yl)-1-oxopropan-2-yl)amino)-2-oxoethyl)-3-(4,4-dimethyl-2-(2-phenylacetamido)pentanamido)-4-methyl-2-oxohexanamide]
1.51	0.956	CCC(C)C(NC(=O)C(Cc1c[nH]cn1)NC(=O)Cc1ccccc1)C(=O)C(=O)NCC(=O)NC(Cc1ccc2ccccc2c1)C(N)=O (stereo not drawn) [PHELIX308, 3-(3-(1H-imidazol-4-yl)-2-(2-phenylacetamido)propanamido)-N-(2-((1-amino-3-(naphthalen-2-yl)-1-oxopropan-2-yl)amino)-2-oxoethyl)-4-methyl-2-oxohexanamide]
1.21	0.239	CCC(C)C(NC(=O)OCc1ccccc1)C(=O)C(=O)NCC(=O)NC(Cc1ccc2ccccc2c1)C(N)=O (stereo not drawn) [PHELIX325, benzyl (1-((2-((1-amino-3-(naphthalen-2-yl)-1-oxopropan-2-yl)amino)-2-oxoethyl)amino)-4-methyl-1,2-dioxohexan-3-yl)carbamate]
0.0386	0.495	CCC(C)C(NC(=O)C(CCC(N)=O)NC(=O)Cc1ccccc1)C(=O)C(=O)NCC(=O)NC(Cc1ccc2ccccc2c1)C(N)=O (stereo not drawn) [PHELIX320, N^1-(1-((2-((1-amino-3-(naphthalen-2-yl)-1-oxopropan-2-yl)amino)-2-oxoethyl)amino)-4-methyl-1,2-dioxohexan-3-yl)-2-(2-phenylacetamido)pentanediamide]
0.00067	0.00043	CCC(C)C(NC(=O)C(CC(C)C)NC(=O)NCc1ccccc1)C(=O)C(=O)NCC(=O)NC(Cc1ccc2ccccc2c1)C(N)=O (stereo not drawn) [PHELIX334, N-(2-((1-amino-3-(naphthalen-2-yl)-1-oxopropan-2-yl)amino)-2-oxoethyl)-3-(2-(3-benzylureido)-4-methylpentamido)-4-methyl-2-oxohexanamide]
0.00145	< 0.00015	CCC(C)C(NC(=O)C(CC(C)C)NC(=O)Nc1ccccc1)C(=O)C(=O)NCC(=O)NC(Cc1ccc2ccccc2c1)C(N)=O (stereo not drawn) [PHELIX335, N-(2-((1-amino-3-(naphthalen-2-yl)-1-oxopropan-2-yl)amino)-2-oxoethyl)-4-methyl-3-(4-methyl-2-(3-phenylureido)pentanamido)-2-oxohexanamide]
0.00621	0.0179	CCC(C)C(NC(=O)C(CC(C)C)NC(=O)Cc1cncnc1)C(=O)C(=O)NCC(=O)NC(Cc1ccc2ccccc2c1)C(N)=O (stereo not drawn) [PHELIX365, N-(2-((1-amino-3-(naphthalen-2-yl)-1-oxopropan-2-yl)amino)-2-oxoethyl)-4-methyl-3-(4-methyl-2-(2-(pyrimidin-5-yl)acetamido)pentanamido)-2-oxohexanamide]
